Experimental data reported in PubChem BioAssay (NCI).
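A five-concentration, 48-hour dose response in 96-well plates underlies each endpoint, interpolated linearly between surrounding concentrations. TGI marks complete inhibition of growth.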

Key:
Assay in all cases: inhibition of tumour cell growth, NCI panel, 48 h
U251 CNS = system: U251 CNS
UACC-257 melanoma = system: UACC-257 melanoma
NCI-H460 lung = system: NCI-H460 lung
SW-620 colon = system: SW-620 colon
HCT-116 colon = system: HCT-116 colon
MOLT-4 leukemia = system: MOLT-4 leukemia
UO-31 renal = system: UO-31 renal
OVCAR-4 ovarian = system: OVCAR-4 ovarian
COLO 205 colon = system: COLO 205 colon
DU-145 prostate = system: DU-145 prostate
NCI/ADR-RES ovarian = system: NCI/ADR-RES ovarian
PC-3 prostate = system: PC-3 prostate
786-0 renal = system: 786-0 renal
KM12 colon = system: KM12 colon
IGROV1 ovarian = system: IGROV1 ovarian
TK-10 renal = system: TK-10 renal
HT29 colon = system: HT29 colon
RXF 393 renal = system: RXF 393 renal
HOP-62 NSCLC = system: HOP-62 NSCLC
OVCAR-8 ovarian = system: OVCAR-8 ovarian
SNB-75 CNS = system: SNB-75 CNS
MALME-3M melanoma = system: MALME-3M melanoma
NCI-H23 lung = system: NCI-H23 lung
SF-268 CNS = system: SF-268 CNS
EKVX NSCLC = system: EKVX NSCLC
HL-60(TB) leukemia = system: HL-60(TB) leukemia
HCC-2998 colon = system: HCC-2998 colon
MDA-MB-231 breast = system: MDA-MB-231 breast
HCT-15 colon = system: HCT-15 colon
RPMI-8226 leukemia = system: RPMI-8226 leukemia
MDA-MB-435 = system: MDA-MB-435
SN12C renal = system: SN12C renal
UACC-62 melanoma = system: UACC-62 melanoma
M14 melanoma = system: M14 melanoma
CCRF-CEM leukemia = system: CCRF-CEM leukemia
A549 NSCLC = system: A549 NSCLC
OVCAR-3 ovarian = system: OVCAR-3 ovarian
SK-MEL-5 melanoma = system: SK-MEL-5 melanoma
CAKI-1 renal = system: CAKI-1 renal
K-562 leukemia = system: K-562 leukemia
SK-MEL-28 melanoma = system: SK-MEL-28 melanoma
T-47D breast = system: T-47D breast
NCI-H226 lung = system: NCI-H226 lung
SF-295 CNS = system: SF-295 CNS
NCI-H522 lung = system: NCI-H522 lung
SNB-19 CNS = system: SNB-19 CNS
LOX IMVI melanoma = system: LOX IMVI melanoma
A498 renal = system: A498 renal
OVCAR-5 ovarian = system: OVCAR-5 ovarian
BT-549 breast = system: BT-549 breast
HS 578T breast = system: HS 578T breast
ACHN renal = system: ACHN renal
SK-MEL-2 melanoma = system: SK-MEL-2 melanoma
MCF7 breast = system: MCF7 breast
SR leukemia = system: SR leukemia

Measured: TGI

COC1CCN(N(C)C)O1 (stereo not given)
> 100 µM: all assays above
